In brackets after ≈: the same amount, converted by molar mass.
Experiments:
[1] = tested on: C. albicans clinical isolate 1 (TW1); assay: MIC80 fungal growth inhibition, clinical isolate TW1; assay type: cell-based, Candida albicans; settings: Azole-susceptible, >80% growth inhibition, visual scoring; for MIC80: Candida albicans, read-out: MIC80 TW1
Description: (§1) The antifungal activity of the pyridinohydrazide and hydrazomethylpyridine derivatives described in the s were evaluated in vitro using Candida albicans (ATCC Accession No. 10231) and Candida glabrata (ATCC Accession No. 48435). In addition, the compounds were evaluated for activity against two previously-described clinical isolates of C. albicans known to have developed azole-resistance. These isolates were obtained over a two year period from a single AIDS patient and the development of the azole-resistance mechanisms have been extensively characterized (White T C. Antimicrob. Agents Chemother. (1997) 41: 1482-1487). MIC assays were performed on the clinical isolates 1 and 17 (annotated TW1 and TW17, respectively), where isolate 1 was used as an azole-susceptible control and isolate 17 was considered azole-resistant. All assays were done in accordance with NCCLS reference documents (Clinical Laboratory and Standards Institute. Reference method for Broth Dilution Antifungal Susceptibility Testing of Yeasts: Approved Standard. M27-A3 2010; 28). The results of these screenings are summarized in Tables 1-9 (Examples 20-27) as the minimum concentrations that inhibited more than 80% of fungal growth (MIC80) as compared to positive controls containing 1% DMSO. Assays were performed in HEPES-buffered RPMI-1640 media. All MIC screens used a visual scoring method as opposed to spectroscopic analysis, due to the altered absorbance spectra of many of the compounds.

[2] = tested on: C. albicans clinical isolate 17 (TW17); assay: MIC80 fungal growth inhibition, clinical isolate TW17; assay type: cell-based, Candida albicans; settings: Azole-resistant, >80% growth inhibition, visual scoring; for MIC80: Candida albicans, read-out: MIC80 TW17
Description: as §1

[3] = tested on: Candida albicans (ATCC Accession No. 10231); assay: MIC80 fungal growth inhibition, C. albicans ATCC 10231; assay type: cell-based; settings: Azole-susceptible, >80% growth inhibition, visual scoring; for MIC80: Candida albicans, ATCC10231, read-out: MIC80 C. albicans ATCC No. 10231
Description: as §1

[4] = tested on: Candida glabrata (ATCC Accession No. 48435); assay: MIC80 fungal growth inhibition, C. glabrata ATCC 48435; assay type: cell-based; settings: for MIC80 C. glabrata ATCC No. 48435 / MIC80: Azole-resistant, >80% growth inhibition, visual scoring; for MIC80: Nakaseomyces glabratus, ATCC48435, read-out: MIC80 C. glabrata ATCC No. 48435
Description: as §1

| MIC80 TW1 [1] | MIC80 TW17 [2] | MIC80 C. albicans ATCC No. 10231 [3] | MIC80 C. glabrata ATCC No. 48435 [4] | MIC80 [4] | MIC80 [1] | MIC80 [2] | MIC80 [3] | Structure (SMILES) | potency against Candida glabrata (in words) [4] |
| --- | --- | --- | --- | --- | --- | --- | --- | --- | --- |
| 16 µg/mL (≈ 50 µM) | 125 µg/mL (≈ 390 µM) | 16 µg/mL (≈ 50 µM) | 64 µg/mL (≈ 200 µM) | – | – | – | – | O=C(NN=Cc1cc(Br)ccc1O)c1ccncc1 [AR17] | – |
| – | – | – | – | 2 µg/mL (≈ 7.37 µM) | – | – | – | Cc1ccc(O)c(/C=N/NC(=O)c2cccnc2O)c1 [AR20] | – |
| – | – | – | 0.5 µg/mL (≈ 1.49 µM) | – | – | – | – | O=C(NN=Cc1cc(Br)ccc1O)c1cccnc1O [AR22] | one of the most potent compounds |
| 31 µg/mL (≈ 121 µM) | 31 µg/mL (≈ 121 µM) | 31 µg/mL (≈ 121 µM) | 16 µg/mL (≈ 62.2 µM) | – | – | – | – | O=C(NN=Cc1ccccc1O)c1ccc[n+]([O-])c1 [AR23] | – |
| 16 µg/mL (≈ 59 µM) | 16 µg/mL (≈ 59 µM) | 16 µg/mL (≈ 59 µM) | 31 µg/mL (≈ 114 µM) | – | – | – | – | Cc1ccc(O)c(C=NNC(=O)c2ccc[n+]([O-])c2)c1 [AR24] | – |
| – | – | – | – | 4 µg/mL (≈ 13.9 µM) | 62 µg/mL (≈ 216 µM) | 31 µg/mL (≈ 108 µM) | 16 µg/mL (≈ 55.7 µM) | COc1ccc(O)c(/C=N/NC(=O)c2ccc[n+]([O-])c2)c1 [AR25] | – |
| – | – | – | – | 4 µg/mL (≈ 13.7 µM) | 31 µg/mL (≈ 106 µM) | 31 µg/mL (≈ 106 µM) | 16 µg/mL (≈ 54.9 µM) | O=C(N/N=C/c1cc(Cl)ccc1O)c1ccc[n+]([O-])c1 [AR26] | – |
| 31 µg/mL (≈ 138 µM) | 62 µg/mL (≈ 275 µM) | 62 µg/mL (≈ 275 µM) | 62 µg/mL (≈ 275 µM) | – | – | – | – | O=C(NN=Cc1ccccn1)c1ccccc1 [AR31] | – |
| 31 µg/mL (≈ 128 µM) | 62 µg/mL (≈ 257 µM) | 31 µg/mL (≈ 128 µM) | 4 µg/mL (≈ 16.6 µM) | – | – | – | – | O=C(NN=Cc1ccccn1)c1ccccc1O [AR32] | – |
| 62 µg/mL (≈ 274 µM) | 62 µg/mL (≈ 274 µM) | 125 µg/mL (≈ 553 µM) | 125 µg/mL (≈ 553 µM) | – | – | – | – | O=C(NN=Cc1ccccn1)c1cccnc1 [AR35] | – |
| 62 µg/mL (≈ 274 µM) | 125 µg/mL (≈ 553 µM) | 125 µg/mL (≈ 553 µM) | 125 µg/mL (≈ 553 µM) | – | – | – | – | O=C(NN=Cc1ccccn1)c1ccncc1 [AR36] | – |
| 62 µg/mL (≈ 256 µM) | 125 µg/mL (≈ 516 µM) | 125 µg/mL (≈ 516 µM) | 125 µg/mL (≈ 516 µM) | – | – | – | – | O=C(NN=Cc1ccccn1)c1ccc[n+]([O-])c1 [AR38] | – |
